Assay results: PMC10707982, “Solubility and Thermodynamics Data of Cabozantinib Malate in Various Aqueous Solutions of Dimethyl Sulfoxide at Different Temperatures” (Molecules, 2023)

Assay: Activity coefficients (γi = xidl/xe) of CBZM
Type: physicochemical
Excerpt: The data for Tfus, ΔHfus, and ΔCp for CBZM were collected from Ref. [20], and they are 462.72 K, 56.93 kJ mol^−1, and 123.03 J mol^−1 K^−1, respectively. Now, Equation (2) was used to determine the xidl values for CBZM. The γi values for CBZM in all cosolvent combinations and pure solvents were obtained using Equation (3):(3) γi=xidl/xe

COc1cc2nccc(Oc3ccc(NC(=O)C4(C(=O)Nc5ccc(F)cc5)CC4)cc3)c2cc1OC [CBZM, Cabozantinib malate]
Activity coefficient (γi) (DMSO mass fraction m = 0.0, T = 298.2 K): 6703
Activity coefficient (γi) (DMSO mass fraction m = 0.0, T = 303.2 K): 5689
Activity coefficient (γi) (DMSO mass fraction m = 0.0, T = 308.2 K): 5044
Activity coefficient (γi) (DMSO mass fraction m = 0.0, T = 313.2 K): 4739
Activity coefficient (γi) (DMSO mass fraction m = 0.0, T = 318.2 K): 4597
Activity coefficient (γi) (DMSO mass fraction m = 0.1, T = 298.2 K): 2011
Activity coefficient (γi) (DMSO mass fraction m = 0.1, T = 303.2 K): 1712
Activity coefficient (γi) (DMSO mass fraction m = 0.1, T = 308.2 K): 1608
Activity coefficient (γi) (DMSO mass fraction m = 0.1, T = 313.2 K): 1542
Activity coefficient (γi) (DMSO mass fraction m = 0.1, T = 318.2 K): 1538
Activity coefficient (γi) (DMSO mass fraction m = 0.2, T = 298.2 K): 605.5
Activity coefficient (γi) (DMSO mass fraction m = 0.2, T = 303.2 K): 550.8
Activity coefficient (γi) (DMSO mass fraction m = 0.2, T = 308.2 K): 521.3
Activity coefficient (γi) (DMSO mass fraction m = 0.2, T = 313.2 K): 517.5
Activity coefficient (γi) (DMSO mass fraction m = 0.2, T = 318.2 K): 518.0
Activity coefficient (γi) (DMSO mass fraction m = 0.3, T = 298.2 K): 187.7
Activity coefficient (γi) (DMSO mass fraction m = 0.3, T = 303.2 K): 173.5
Activity coefficient (γi) (DMSO mass fraction m = 0.3, T = 308.2 K): 167.9
Activity coefficient (γi) (DMSO mass fraction m = 0.3, T = 313.2 K): 169.7
Activity coefficient (γi) (DMSO mass fraction m = 0.3, T = 318.2 K): 174.4
Activity coefficient (γi) (DMSO mass fraction m = 0.4, T = 298.2 K): 56.40
Activity coefficient (γi) (DMSO mass fraction m = 0.4, T = 303.2 K): 55.14
Activity coefficient (γi) (DMSO mass fraction m = 0.4, T = 308.2 K): 55.29
Activity coefficient (γi) (DMSO mass fraction m = 0.4, T = 313.2 K): 56.55
Activity coefficient (γi) (DMSO mass fraction m = 0.4, T = 318.2 K): 59.49
Activity coefficient (γi) (DMSO mass fraction m = 0.5, T = 298.2 K): 17.42
Activity coefficient (γi) (DMSO mass fraction m = 0.5, T = 303.2 K): 17.07
Activity coefficient (γi) (DMSO mass fraction m = 0.5, T = 308.2 K): 17.69
Activity coefficient (γi) (DMSO mass fraction m = 0.5, T = 313.2 K): 18.40
Activity coefficient (γi) (DMSO mass fraction m = 0.5, T = 318.2 K): 19.80
Activity coefficient (γi) (DMSO mass fraction m = 0.6, T = 298.2 K): 5.281
Activity coefficient (γi) (DMSO mass fraction m = 0.6, T = 303.2 K): 5.524
Activity coefficient (γi) (DMSO mass fraction m = 0.6, T = 308.2 K): 5.800
Activity coefficient (γi) (DMSO mass fraction m = 0.6, T = 313.2 K): 6.266
Activity coefficient (γi) (DMSO mass fraction m = 0.6, T = 318.2 K): 6.776
Activity coefficient (γi) (DMSO mass fraction m = 0.7, T = 298.2 K): 1.609
Activity coefficient (γi) (DMSO mass fraction m = 0.7, T = 303.2 K): 1.699
Activity coefficient (γi) (DMSO mass fraction m = 0.7, T = 308.2 K): 1.853
Activity coefficient (γi) (DMSO mass fraction m = 0.7, T = 313.2 K): 2.023
Activity coefficient (γi) (DMSO mass fraction m = 0.7, T = 318.2 K): 2.267
Activity coefficient (γi) (DMSO mass fraction m = 0.8, T = 298.2 K): 0.4851
Activity coefficient (γi) (DMSO mass fraction m = 0.8, T = 303.2 K): 0.5430
Activity coefficient (γi) (DMSO mass fraction m = 0.8, T = 308.2 K): 0.6120
Activity coefficient (γi) (DMSO mass fraction m = 0.8, T = 313.2 K): 0.6808
Activity coefficient (γi) (DMSO mass fraction m = 0.8, T = 318.2 K): 0.7771
Activity coefficient (γi) (DMSO mass fraction m = 0.9, T = 298.2 K): 0.1392
Activity coefficient (γi) (DMSO mass fraction m = 0.9, T = 303.2 K): 0.1658
Activity coefficient (γi) (DMSO mass fraction m = 0.9, T = 308.2 K): 0.1932
Activity coefficient (γi) (DMSO mass fraction m = 0.9, T = 313.2 K): 0.2245
Activity coefficient (γi) (DMSO mass fraction m = 0.9, T = 318.2 K): 0.2572
Activity coefficient (γi) (DMSO mass fraction m = 1.0, T = 298.2 K): 0.0455
Activity coefficient (γi) (DMSO mass fraction m = 1.0, T = 303.2 K): 0.0547
Activity coefficient (γi) (DMSO mass fraction m = 1.0, T = 308.2 K): 0.0646
Activity coefficient (γi) (DMSO mass fraction m = 1.0, T = 313.2 K): 0.0771
Activity coefficient (γi) (DMSO mass fraction m = 1.0, T = 318.2 K): 0.0894
